# Data as given in patent publication US11053236B2, “Substituted isoselenazolone anti-infective, anti-inflammatory, anti-cancer, cytoprotective, neuroprotective, and anti-oxidant agents” (priority 2016, dated 2021).
# How the values were obtained:
# Mtb H37Rv = test: microbe, parasite or virus in culture; type: cell-based; settings: Mycobacterium tuberculosis, MABA
# Mtb Ag85C = Mtb Ag85C (Mycobacterium tuberculosis, UniProt P9WQN9); test: Fluorometric resorufin butyrate/trehalose assay of Mtb Ag85C activity; type: biochemical; settings: for remaining activity at 5 µM: 5 μM compound, 40 min of incubation, normalized to control without inhibitor, read-out: Percent of Mtb Ag85C activity remaining
# Chain of Mtb Ag85C (P9WQN9 46-340 limits assumed): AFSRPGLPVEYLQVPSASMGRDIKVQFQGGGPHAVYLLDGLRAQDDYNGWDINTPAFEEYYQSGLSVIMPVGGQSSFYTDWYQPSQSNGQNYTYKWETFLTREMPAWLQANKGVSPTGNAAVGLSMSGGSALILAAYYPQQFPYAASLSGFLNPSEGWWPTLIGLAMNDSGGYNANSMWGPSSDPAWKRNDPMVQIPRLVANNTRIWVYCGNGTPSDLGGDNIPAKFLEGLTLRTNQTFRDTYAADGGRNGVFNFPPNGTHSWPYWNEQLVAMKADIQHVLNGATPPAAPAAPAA
# [1] = system: Mycobacterium tuberculosis H37Rv; test: Minimum inhibitory concentration for Mycobacterium tuberculosis H37Rv strain (Table A); type: cell-based; settings: for MIC / MIC50: Mycobacterium tuberculosis, Strain Mtb H37Rv
# Ag85C = Ag85C (Mycobacterium tuberculosis, UniProt P9WQN9); test: Activity of Ag85C modified by compounds over time (FIGS. 6A-6B); type: biochemical
# Chain of Ag85C (P9WQN9 46-340): as the sequence (P9WQN9 46-340 limits assumed) above
# Excerpt: FIGS. 6A-6B: Activity of Ag85C modified by compounds 506e (FIG. 6A) and 506f (FIG. 6B) over time.
# FIGS. 6A-6B show the activity of Ag85C modified by compounds 506e and 506f over time.
# [2] = system: MRHF cells treated with TcdB and TcdA; test: Cytotoxicity assay: inhibition of toxin-induced cell rounding; type: cell-based, human; settings: 0.05 mL of 40 μM compound mixed with 0.05 mL TcdB and TcdA solution, 30 min; MRHF cells 2 h
# Protocol: Cytotoxicity data was collected using a qualitative assay designed by Quidel to detect TcdB and TcdA presence in patients' stool samples. A solution containing TcdB and TcdA (0.05 mL) was mixed with 0.05 mL of a 40 μM solution of compounds of example 1-15 individually. These solutions were then incubated together for thirty minutes at room temperature. Then the 0.1 ml solutions were used to treat MRHF cells in a twenty four well plate. The cells were then incubated at thirty degrees Celsius under CO2 for two hours. Then, the cells were imaged using a 20× objective on an inverted microscope. […] Thus, compound 506o provides cytoprotection against Clostridium difficile toxins TcdB and TcdA.
SMILES,melting point [°C],MIC (Mtb H37Rv) [µg/mL],remaining activity at 5 µM (Mtb Ag85C) [%],MIC [1] [µg/mL],MIC50 [1] [µg/mL],other results
[N-]=[N+]=Nc1ccc(-n2[se]c3ccccc3c2=O)cc1,169 to 170,–,–,–,–,–
O=c1c2ccccc2[se]n1C12CC3CC(CC(C3)C1)C2,215 to 217,–,–,–,–,–
CC(C)(C)n1[se]c2ccccc2c1=O,137 to 139,–,–,–,–,–
CC(C)Cn1[se]c2ccccc2c1=O,114 to 116,–,–,–,–,–
"[N-]=[N+]=Nc1ccc(NC(=O)c2ccccc2[Se]C#Cc2ccccc2)cc1 [Compound 208, N-(4-Azidophenyl)-2-((phenylethynyl)selanyl)-benzamide]",–,≥ 50,–,–,–,–
"O=C(CCCCC1SC[C@@H]2NC(=O)N[C@H]12)NCCOCCOCCOCCNC(=O)CCC(=O)N1Cc2ccccc2-c2nnn(-c3ccc(-n4[se]c5ccccc5c4=O)cc3)c2-c2ccccc21 (stereo partly drawn) [Compound 210, N-(13,16-dioxo-16-(3-(4-(3-oxobenzo[d][1,2]selenazol-2(3H)-yl)phenyl)-3,9-dihydro-8H-dibenzo[b,f][1,2,3]triazolo[4,5-d]azocin-8-yl)-3,6,9-trioxa-12-azahexadecyl)-5-((3aS,6aR)-2-oxohexahydro-1H-thieno[3,4-d]imidazol-4-yl)pentanamide]",–,≥ 50,61,–,–,–
"COc1ccc(Cn2[se]c3ccccc3c2=O)cc1 [Compound 506a, 2-(4-methoxybenzyl)benzo[d][1,2]selenazol-3(2H)-one]",–,–,–,25,18.3,–
"COc1ccc(-n2[se]c3ccccc3c2=O)cc1 [Compound 506b, 2-(4-methoxyphenyl)benzo[d][1,2]selenazol-3(2H)-one]",–,–,–,25,19.3,–
"COc1ccccc1Cn1[se]c2ccccc2c1=O [Compound 506c, 2-(2-methoxybenzyl)benzo[d][1,2]selenazol-3(2H)-one]",169 to 170,12.5,36,12.5,10.4,MIC values against Mycobacterium tuberculosis compared with ebselen [1]: lower than ebselen
"O=c1c2ccccc2[se]n1Cc1ccccc1 [Compound 506d, 2-benzylbenzo[d][1,2]selenazol-3(2H)-one]",–,–,–,25,15,–
"C=CCn1[se]c2ccccc2c1=O [Compound 506e, 2-allylbenzo[d][1,2]selenazol-3(2H)-one]",–,12.5,15,12.5,10.4,"IC50 (Mtb Ag85C; 15 min of incubation, read-out: Apparent IC50 (appIC50) against Mtb Ag85C): 8.8 µM; MIC values against Mycobacterium tuberculosis compared with ebselen [1]: lower than ebselen; Activity of Ag85C modified by compound over time (Ag85C): decrease in the activity of Ag85C"
"O=c1c2ccccc2[se]n1CC1CCCCC1 [Compound 506f, 2-(cyclohexylmethyl)benzo[d][1,2]selenazol-3(2H)-one]",–,≥ 50,30,50,36.2,Activity of Ag85C modified by compound over time (Ag85C): decrease in the activity of Ag85C
"O=c1c2ccccc2[se]n1C1CCCC1 [Compound 506l, 2-Cyclopentylbenzo[d][1,2]selenazol-3(2H)-one]",119 to 120,–,40,–,–,–
"O=c1c2ccccc2[se]n1C1CCCCC1 [Compound 506m, 2-Cyclohexylbenzo[d][1,2]selenazol-3(2H)-one]",–,–,44,–,–,–
"O=c1c2ccccc2[se]n1-c1ccccn1 [Compound 506o, 2-(Pyridin-2-yl)benzo[d][1,2]selenazol-3(2H)-one]",–,–,–,–,–,Inhibition of cell rounding (cell appearance) [2]: more intermediate phenotype
"O=c1c2ccccc2[se]n1-c1ccccc1 [Ebselen, 2-phenyl-1,2-benzisoselenazol-3(2H)-one, reference compound]",–,12.5,17,12.5,9.59,Inhibition of cell rounding (cell appearance) [2]: maintained their string-like appearance
